The subject of assay [1] is tape-stripped mice. Kind of assay: Skin thickening caused by tape stripping method. Type of assay: in vivo, HR-1 hairless mice. Conditions: 10 mM in drinking water for four weeks; tape stripping three times a week; negative control 1.2; p<0.1%. The protocol:
(§1) Five-week old male HR-1 hairless mice (Hoshino Laboratory Animals, Inc.) were subjected to the experiment.
(§2) Drinking water containing 10 mM D-glutamic acid was given via a water supplying bottle for four weeks. The negative control employed was drinking water containing no D-glutamic acid.
(§3) For the purpose of forming a wrinkle, a tape stripping method was conducted three times a week starting on five days after the initiation of the D-glutamic acid administration according to the method by Matsunaga et al. (Matsunaga, Y. et al., Br. J. Dermatol., 156:884 (2007)). […] For example when a non-treated hairless mouse was subjected to the adhesion/peeling off cycle procedures, the first treatment involved four cycles, and the second and third treatments involved each five to six cycles and the treatment in the second week and later involved six to eight cycles, whereby increasing the quantity of the horny layer water loss to about to 8 mg/cm^2/h. […]
Four weeks after the initiation of the D-glutamic acid administration, the skin thickness was measured using a thickness gauge. The measured value of the skin thickness represented as “skin thickness×2”, since the measurement was conducted by calipering the skin with the thickness gauge.

The subject of assay [2] is tape-stripped mice. The assay is described as follows: Wrinkle formation caused by tape stripping method. Type of assay: in vivo, HR-1 hairless mice. The conditions noted are these: 10 mM in drinking water for four weeks, score 0-8 per Table 1, control 3.5, p<1%. The protocol: as §1, §2
as §3, with “(2007)). Briefly, a 24-mm width cellophane tape (Cellotape (trade mark), Nichiban Co., Ltd.) cut in a length suited to the dorsal length of a hairless mouse (HR-1 strain; Hoshino Laboratory Animals, Inc., Tokyo) was adhered evenly over the entire dorsal area and then peeled off.” for “(2007)).”

Assay [3] concerns mice irradiated with ultraviolet rays. Kind of assay: Transepidermal water loss (skin barrier function) in mice irradiated with ultraviolet rays. The class given is in vivo, Skh-1 hairless mice. The conditions noted are these: 10 mM in drinking water for four weeks; UV-B three times a week, total 1.4 J/cm^2; control 16. The protocol:
(§4) Six week-old Skh-1 hairless mice (male) were employed.
as §2
(§5) UV irradiation was conducted employing a partly modified method by Schwarz et al. (Haratake, A. et al., J. Invest. Dermatol. 108:769 (1997)) in accordance with the repetitive UV-B irradiation method (Naganuma, M. et al., J. Dermatol.Sci.25:29 (2001), Schwartz, E. J., Invest. Dermatol. 91:158 (1988)). Thus, the dorsal area was irradiated with UV-B(light source: Toshiba FL-20 SE fluorescent lamp manufactured by Toshiba Electric) three times a week for four weeks. The total irradiation dose was 1.4 J/cm^2. The UV dose measured with UVRADIOMETER (UVR-305/365D(II), Topcon Corporation) was employed as a readout.
Four weeks after the initiation of the D-glutamic acid administration, the quantity of the transepidermal water loss was measured according to a standard method.

The test system is the same in assay [4]. The assay is described as follows: Wrinkle formation caused by UV irradiation. Type of assay: in vivo, Skh-1 hairless mice. The conditions noted are these: 10 mM in drinking water for four weeks; UV-B three times a week, total 1.4 J/cm^2; score 0-8 per Table 1; control 4.9; p<1%. The protocol: Four weeks after the initiation of the D-glutamic acid administration, the dorsal areas of the mice were photographed, and a partly modified method by Bissett et al. (Bissett, D. L. et al., Photochemistry and Photobiology, 46:367(1987)) was employed to evaluate the degree of wrinkle formation in accordance with the judgment criteria indicated in Table 1 shown below.
as §4, §2, §5
The wrinkle formation was evaluated by a method similar to that in Example 1.

Results on one compound are retold here after patent publication US20120190745A1, “ORAL COMPOSITION FOR REDUCING WRINKLE FORMATION” (SHISEIDO COMPANY. LTD., priority 2009, published 2012).

Regarding `N[C@H](CCC(=O)O)C(=O)O` [D-glutamic acid], the “mean value of the skin thickness (skin thickness×2)” value with tape-stripped mice [1] stood at 1.05. Besides, the values for the wrinkle score (in the assay with tape-stripped mice [2]; in assay [4]) were 1.5 and 3.3, respectively. Besides, the “quantity of the transepidermal water loss” value in assay [3] is reported as 13.
